Source: patent US7772197B2, “1,3,5-triazines for treatment of viral diseases” (1,3,5-Triazines for Treatment of Viral Diseases, priority 2002, dated 2010)

How the values were obtained:
HIV-1 LAI-M184V = test: Sensitivity of NRTI-resistant HIV strain M184V, MT-2 cells; assay type: cell-based; conditions: Human immunodeficiency virus 1, MT2
Description: (§1) 0.1 ml of a 3×10^5 cells/ml MT-2 cell suspension were seeded in 96-well plates at 3×10^4 cells/well. The compounds to be assayed were diluted in a separate 96-well at ten times (10×) the concentration needed for the screen. 22 μl of the 10× compounds was then added to the wells in triplicate except for six control wells, containing uninfected MT-2 cells alone (3 wells) and untreated HIV-infected MT-2 cells (3 wells). This was followed by the addition of HIV-1 at an MOI of 0.01, except for the three wells serving as the uninfected control. 0.1 ml of cRPMI was added to the uninfected well instead of virus. After the addition of virus, the 96-well plate was centrifuged at 1,200×g for two hours to enhance the adsorption of the virus by the MT-2 cells (see, e.g., O'Doherty, J. Virol. 74:10074-10080 (2000)). After the centrifugation step, the 96-well plate was then incubated in a 37° C. incubator containing 5% CO2 for three days. At the end of this time period the virus and cells were mixed by gentle pipetting followed by a 1 minute spin at 600×g to pellet the cells. The supernatant of each well was then serially diluted 1,000-fold into new 96-well plates to serve as inoculum for the next passage and assayed by ELISA for the amount of p24 produced. The next passage was performed as described above, except that the virus used to infect the cells was derived from the 1,000-fold dilution plate.
(§2) To determine if there is resistance of HIV NRTI resistant strains to mutagenic nucleoside analogues, NRTI resistant strains were grown in the presence of 5-aza-dC to determine whether the EC50 for 5-aza-dC is different from the WT strain (HIV-1 LAI). […] Growth of HIV NRTI resistant strains in the presence of the appropriate concentration of NRTI was used as a positive control.
Three HIV NRTI resistant strains (HIV-1 LAI-M184V, HIV-1 RTMDR1, with 74V, 41L, 106A and 215Y mutations, and HIV-1 RTMC, with 67N, 70R, 215F and 219Q mutations) were used to test the effectiveness of 5-aza-dC. […] Mutations include: M41L, E44D, A62V, K65R, D67N, T69DN, T69S_SS, K70R, L74V, V75I, F77L, Y115F, F116Y, V118I, Q151M, M184V, L210W, T215F and K219QE.
The effectiveness of DHAdC was tested against wild-type HIV strains and NRTI resistant HIV strains as described in Example 2. The following strains were tested: HIV-1 LAI, wild-type; HIV-I LAI-M184V-M184V mutation with resistance to lamivudine (3TC); HIV-1 RTMDR1-74V, 41L, 106A and 215Y mutations with resistance to zidovudine, didanosine, nevirapine and other non-nucleoside reverse transcriptase inhibitors; and HIV-1 RTMC-67N, 70R, 215F and 219Q with resistance to zidovudine.

[1] = tested on: HIV-1 RTMDR1, with 74V, 41L, 106A and 215Y mutations; test: Sensitivity of NRTI-resistant HIV strain RTMDR1, MT-2 cells; assay type: cell-based; conditions: Human immunodeficiency virus 1, MT2
Description: as §1, §2
Three HIV NRTI resistant strains (HIV-1 LAI-M184V, HIV-1 RTMDR1, with 74V, 41L, 106A and 215Y mutations, and HIV-1 RTMC, with 67N, 70R, 215F and 219Q mutations) were used to test the effectiveness of 5-aza-dC. […]

[2] = Pharmacokinetics of DHAdC base and DHAdC-palmitate in rats; assay type: in vivo; conditions: rat, plasma, IV
[3] = tested on: reverse transcriptase of HIV NL4-3; test: DHAdC viral mutagenicity, sense strand of RT fragment; assay type: cell-based; conditions: 50 μM
Description: The viral genomic DNA from cells treated with the deoxyribonucleoside analog 5-aza-dC (30 μM) was purified using a Qiagen DNeasy® Kit. 1 μg of genomic DNA was used to amplify a 1 kb region of the HIV-1 RT proviral DNA by PCR. The PCR product was then cloned into a TOPO® cloning vector. A Millipore Miniprep Kit was used to purify plasmid containing proviral inserts. About 45 positive clones were sequenced in both directions by a Beckman Coulter CEQ 8000. The sequencing results were analyzed and assembled using the DNASTAR Stagman program. Each mutated base was counted and the mutation rate was calculated over the total number of sequenced nucleotides.
Assessment of DHAdC viral mutagenicity was carried out as described above for 5-aza-dC. Mutagenesis of the sense strand of a 0.9 kb fragment of reverse transcriptase of HIV NL4-3 was determined after a single passage in SN1212 (50 μM) and compared to an untreated control.

[4] = tested on: hgprt gene in CHO (Chinese Hamster Ovary) cells; test: hgprt assay, mutagenesis of cellular DNA, 6-thioguanine selection; assay type: cell-based; conditions: 1 mM, data not shown
Description: (Data not shown.) An hgprt assay was also performed to test mutagenesis of cellular DNA by DHAdC. The assay was performed on CHO (Chinese Hamster Ovary) cells and mutants were selected for resistance to 6-thioguanine (6-TG). EMS (ethyl methyl sulfonate), a known mutagen, was used as a positive control.

mitochondrial DNA = test: Mitochondrial toxicity (lactate production, mitochondrial DNA); assay type: cell-based; conditions: highest dose tested, 320 μM, data not shown
Description: Mitochondrial toxicity is also a safety concern with nucleoside analogs. SN1212 was also analyzed for mitochondrial toxicity. […] (Data not shown.)

HIV = HIV infected SCID-Hu mice; assay type: in vivo
Description: After completion of this toxicology experiment, SN1212 was tested in HIV infected SCID-Hu mice. […] The discordance between viral infectivity and conventional surrogate markers of viral load, such as p24 or HIV RNA, is not surprising, as it has also been observed in vitro, and reflects the increased proportion of non-infectious viral particles in the presence of SN1212. It is also interesting to note that, of the treated groups, the immunologic profile of the SN1212 groups most closely resemble that of the uninfected group. This is compatible with the finding that infection with less “fit” viruses provides a relative clinical benefit by preserving cellular immunity.

Molecule NC1=NC(=O)N([C@H]2C[C@H](O)[C@@H](CO)O2)CN1 [DHAdC, 1-(2-Deoxy-β-D-ribofuranosyl)-4-amino-1,2,5,6-tetrahydro-1,3,5-triazin-2-one] has an EC50 (HIV-1 LAI-M184V) of 6 µM, an EC50 [1] of 6 µM and an AUC(0-inf) [2] of 75000 ng·h/mL. For the same molecule, the “C⇄T transitions, fold enhancement” value [3] was 4.6 fold, the “mutation rate in HIV RT, fold higher than control” value [3] was 1.4 fold and the “A→C C→A mutations” value ([3]; number of mutations) was 1. The “A→T T→A mutations” value ([3]; number of mutations) was 1, the “G→A A→G mutations” value ([3]; number of mutations) was 17 and the “G→C C→G mutations” value ([3]; number of mutations) was 3. The “G→T T→G mutations” value ([3]; number of mutations) was 3, the “T→C C→T mutations” value ([3]; number of mutations) was 12 and the mutation rate % ([3]; single passage) was 0.015%. The “mutation rate in HIV RT” value ([3]; treated, control 0.0011) was 0.0015, the “mutation frequency of cellular gene hgprt” value [4] was “did not increase above background” and the “mitochondrial toxicity (increase in lactate production or inhibition of mitochondrial DNA)” value (mitochondrial DNA) was “does not demonstrate evidence of mitochondrial toxicity”. For the same molecule, the “CD4+” value (HIV; 10 mg/kg/day) was 13%, the “CD4+ CD8+” value (HIV; 10 mg/kg/day) was 70% and the “CD8+” value (HIV; 10 mg/kg/day) was 9.5%. The “HIV-1 RNA” value (HIV; 10 mg/kg/day) was 5.3 log copies/10^6 cells, the p24 (HIV; 10 mg/kg/day) was 510 pg/10^6 cells and the Viral liter (HIV; 10 mg/kg/day, ** p < 0.05) was 15.2** viruses/10^6 cells. For the same molecule, the “CD4+” value (HIV; 100 mg/kg/day) was 10%, the “CD4+ CD8+” value (HIV; 100 mg/kg/day) was 63% and the “CD8+” value (HIV; 100 mg/kg/day) was 11%. The “HIV-1 RNA” value (HIV; 100 mg/kg/day) was 5.1 log copies/10^6 cells, the Viral liter (HIV; 100 mg/kg/day) was 24.9 viruses/10^6 cells and the p24 (HIV; 100 mg/kg/day) was 570 pg/10^6 cells.
